Data on 5 compounds can be found in PMC8989888, “Development of optimized drug-like small molecule inhibitors of the SARS-CoV-2 3CL protease for treatment of COVID-19” (Nature Communications, 2022).

Data set [1] can be described thus: Mouse liver microsome stability. Conditions: liver microsomes, second (control) series.
Data set [2] addresses T1, SARS-CoV-2 3CL protease (Severe acute respiratory syndrome coronavirus 2, UniProt P0DTD1). Nature of the data set: biochemical.
Data set [3] has as its target T1, SARS-CoV-2 3CL protease. Nature of the data set: biochemical. This is another data set of the same source.
Data set [4] concerns SARS-CoV-2. Nature of the data set: microbe, parasite or virus in culture. The format is cell-based.
Data set [5] concerns SARS-CoV-2. Nature of the data set: microbe, parasite or virus in culture. It is filed as cell-based. The source holds these as a separate data set.
Data set [6] relates to SARS-CoV-2. Nature of the data set: microbe, parasite or virus in culture. The format is cell-based. Conditions: Severe acute respiratory syndrome coronavirus 2, read-out: SARS-CoV-2 EC50.
Data set [7] relates to Human coronavirus alpha (strain: 229E). Nature of the data set: organism not typed. Conditions: Huh-7, read-out: EC50, human coronavirus 229E. The format is cell-based, HCoV-229E.
Data set [8] deals with Human coronavirus beta (strain: OC43). Nature of the data set: organism not typed. The format is cell-based, HCoV-OC43. Conditions: Huh-7, read-out: EC50, human coronavirus OC43.
Data set [9] relates to Influenza A H1N1 (strain: California/07/2009). Nature of the data set: microbe, parasite or virus in culture. The format is cell-based.
Data set [10] deals with SARS-CoV-2. Nature of the data set: cell-based.
Data set [11] in a line: in vitro.
In data set [12] the test system is SARS-CoV-2. Nature of the data set: microbe, parasite or virus in culture. Conditions: Severe acute respiratory syndrome coronavirus 2, Caco-2, 72 h, read-out: SARS-CoV-2 Caco-2 EC90.
Data set [13] relates to SARS-CoV-2. Conditions: read-out: SARS-CoV-2 antiviral EC50; cited from earlier work.
Data set [14] deals with T1, SARS-CoV-2 3CL protease. It is filed as binding.
Data set [15] addresses T1, SARS-CoV-2 3CL protease. The format is binding. This is another data set of the same source.
The next data set relates to human chymotrypsin. Nature of the data set: Chymotrypsin activity assay (Panc-1 cell lysate). It is filed as biochemical.
Data set [16] in a line: in vitro. Conditions: human, plasma.
A short description of data set [17]: in vitro. Conditions: CD-1, mouse, plasma.
Data set [18] in a line: in vitro. Conditions: human, microsomes, pH 7.4.
Data set [19] is described as follows: in vitro. Conditions: CD-1, mouse, microsomes, pH 7.4.

“And” between values parts separate entries of the source, which are not always exact repeats. Identical values can stand only once. Like-named read-outs stand apart in the source and are kept apart here.

As for `CCOc1ccc2ccc(=O)oc2c1` [7-ethoxycoumarin], the “percent remaining (Figure S11f)” value is 100 in data set [1] (Time T0 min); 93.3574 and 91.0789 in data set [1] (Time T40 min); 86.8345 and 92.3642 in [1] (Time T80 min).

In the case of `CC(C)C[C@H](NC(=O)OCc1cccc(Cl)c1)C(=O)N[C@@H](C[C@@H]1CCNC1=O)C(O)S(=O)(=O)O` (some centres unmarked) [EB46], the half-maximal inhibitory concentration (IC50) on SARS-CoV-2 3CL protease [2] (20 nM protease, read-out: SARS-CoV-2 3CLpro IC50) is 23 nM. Besides, the “normalized activity, dose-response curve (Figure S16)” value on SARS-CoV-2 3CL protease [2] (Concentration of inhibitor (nM) 0.19382) was 94.5875 and 99.4983; on SARS-CoV-2 3CL protease [2] (Concentration of inhibitor (nM) 0.49485), 85.636 and 94.5724; at SARS-CoV-2 3CL protease [2] (Concentration of inhibitor (nM) 0.79588), 82.4718 and 89.5097; on SARS-CoV-2 3CL protease [2] (Concentration of inhibitor (nM) 1.09691) it was 66.6922 and 69.8061; at SARS-CoV-2 3CL protease [2] (Concentration of inhibitor (nM) 1.39794) it was 43.7931 and 49.1904; on SARS-CoV-2 3CL protease [2] (Concentration of inhibitor (nM) 1.69897), 26.3066 and 19.407. Further, the “normalized activity, dose-response curve (Figure S16)” value was 3.283 and 4.675 at SARS-CoV-2 3CL protease [2] (Concentration of inhibitor (nM) 2); 2.2 and 3.398 on SARS-CoV-2 3CL protease [2] (Concentration of inhibitor (nM) 2.30103); 0.4514 and 0.7525 on SARS-CoV-2 3CL protease [2] (Concentration of inhibitor (nM) 2.60206); 95.5867 and 98.0844 on SARS-CoV-2 3CL protease [2] (Concentration of inhibitor (nM) -0.10721); 100 on SARS-CoV-2 3CL protease [2] (Concentration of inhibitor (nM) -0.40824). Also, the “observed inactivation rate vs compound concentration (Figure S19, replicate values)” value at SARS-CoV-2 3CL protease [3] is 0.066 and 0.0593 and 0.077 and 0.0911 and 0.0219 and 0.0804 and 0.0309 and 0.0674 and 0.0293 and 0.0341 and 0.0137 and 0.0021 and 0.0076 and 0.0213 and 0.0308 and 0.0151 and 0.0444 and 0.0119. Also, the kinact/KI at SARS-CoV-2 3CL protease [3] (read-out: SARS-CoV-2 3CLpro kinact/KI) was 55000 M⁻¹ s⁻¹. Also, the EC50 is 2000 nM in the data set on SARS-CoV-2 [4] (Severe acute respiratory syndrome coronavirus 2, Vero C1008, read-out: SARS-CoV-2 Vero E6 EC50); 14 nM with SARS-CoV-2 [5] (Severe acute respiratory syndrome coronavirus 2, 24 h, read-out: SARS-CoV-2 Huh-7ACE2 EC50); 47 nM in the data set with SARS-CoV-2 [6]; less than 100 nM in data set [7]; less than 100 nM in data set [8]; more than 100000 nM in [9] (Influenza A virus, H1N1, MDCK, read-out: Influenza A (H1N1) MDCK EC50). This compound came in with an EC50 on SARS-CoV-2 [10] of 1100 nM. The “inhibition of SARS-CoV-2 (Figure s17b dose-response, replicate values)” value in the data set with SARS-CoV-2 [5] was 95.1515 and 86.8894 and 89.9129 and 91.3208 and 86.4116 and 95.1857 and 65.8333 and 65.5396 and 57.9806 and 19.6057 and 31.892 and 43.1913 and 11.28 and 11.1506 and 22.0558 and -4.012 and 10.0819 and 19.0531 and -4.489 and -1.7527 and 16.6924. In addition, the “effect on replication of Influenza H1N1 (in words)” value in [9] is “no effect was observed”. Moreover, the CC50 in “in vitro [11]” is more than 100000 nM. Besides, in the data set with SARS-CoV-2 [12], the EC90 came to 53 nM.

Consider `CC(C)(C)[C@H](NC(=O)C(F)(F)F)C(=O)N1C[C@H]2[C@@H]([C@H]1C(=O)N[C@H](C#N)C[C@@H]1CCNC1=O)C2(C)C` [PF-07321332], for which the EC50 with SARS-CoV-2 [13] is 78 nM.

For the compound `CCOC(=O)C=CC(CC1CCNC1=O)NC(=O)C(CC(C)C)NC(=O)C(NC(=O)OCc1ccccc1)C(C)OC(C)(C)C` (centres unmarked) [compound 4], the “concentration above which precipitates formed” value is “above 100 µM”. The “Normalized SARS-CoV-2 3CL protease activity” value at SARS-CoV-2 3CL protease [2] was 0.006645 and 0.009809 and 0.01123. Further, on SARS-CoV-2 3CL protease [2] (IC50), half-maximal inhibition (IC50) was put at 123 nM. The same compound registered a binding stoichiometry on SARS-CoV-2 3CL protease [14] of 0.97 ± 0.06. Also, on SARS-CoV-2 3CL protease [15], the “binding to 3CL protease by mass spectrometry (in words)” value is listed as “one-to-one complex”. Further, the Normalized chymotrypsin activity with human chymotrypsin is 0.9372 and 0.8587 and 0.9322. In the data set on SARS-CoV-2 [4] (Severe acute respiratory syndrome coronavirus 2, Vero C1008, 72 h, read-out: EC50, inhibition of SARS-CoV-2 viral replication), the EC50 worked out at 800 nM. In the data set “in vitro [16]”, this compound displayed a half-life of more than 240 min. In the data set “in vitro [17]”, this compound gave a half-life of 10 min. Further, the half-life in “in vitro [18]” was 19 min. Further, in “in vitro [19]”, the half-life is 7.3 min.

As for PF-00835231, the EC50 with SARS-CoV-2 [13] is 221 nM.
